Results taken from patent US11160886B2, “Method for labeling of sensitive and thermosensitive targeting biomolecules with technetium based compounds” (BRACCO IMAGING SPA, priority 2016, dated 2021).

How the values were obtained:
[1] = Biodistribution in healthy rats; type: in vivo, Sprague-Dawley rats; details: for Biodistribution: Blood / Biodistribution: Brain / Biodistribution: Heart / Biodistribution: Intestine / Biodistribution: Kidneys / Biodistribution: Liver / Biodistribution: Lungs / Biodistribution: Muscle / Biodistribution: Spleen / Biodistribution: Stomach / Biodistribution: Urine: healthy rats
Procedure: Before injection, ^99mTc complexes were purified using a reversed-phase C18 Sep-Pack cartridge to remove the excess of unlabeled ligands. After purification, the activity recovered was further diluted with PBS to obtain a final solution that is <0.5% in EtOH content. The RCP and the stability of the purified complexes were evaluated prior to in vivo administration and for the succeeding 18 h.
Biodistribution in healthy rats. Biodistribution in healthy rats was performed on complex 1, complex 2 and complex 9 in order to evaluate their pharmacokinetic profile and elimination pathways as well as their resistance to in vivo metabolism. Female Sprague-Dawley rats weighing 180-200 g were anesthetized with an intramuscular injection of a mixture of Zoletil (40 mg/kg) and xylazine (2 mg/kg). A jugular vein was surgically exposed and 100 μl (300-370 kBq) of the solution containing the selected [^99mTc(N)(PNP3OH)]-compound was injected. The rats (n=3) were scarified by cervical dislocation at different times after injection. The blood was withdrawn from the heart with a syringe immediately after death and quantified. Organs were excised, rinsed in saline, weighed, and the activity was counted in a Nal well counter.

[2] = Challenge reactions (transchelation) with excess Cys, GSH or EDTA, RCP by HPLC; type: physicochemical; details: Cys 10 mM; for % RCP after incubation with excess Cys: 37° C.
Procedure: The transchelation studies were performed for some compounds monitoring by HPLC the radiochemical purity (RCP) of the complexes in presence of an excess of exchanging ligands over the time. The experiments were performed in triplicate.
Challenge experiments were carried out on the purified [^99mTc(N)(PNP3OH)]-labeled small size compounds (complex 1, complex 2, complex 9 and complex 10) using an excess of glutathione (GSH) or Cys. An aliquot (50 μl) of an aqueous stock solution of cysteine hydrochloride (10 mM; 1 mM) was added to a propylene test tube containing PB (250 μl, 0.2 M; pH 7.4), water (100 μl) and the selected [^99mTc(N)(PNP3OH)]-compound (100 μl). The mixture was vortexed and incubated at 37° C. for 24 h. A control reaction containing an equal volume of water, instead of cysteine hydrochloride, was studied in parallel. At 30 min, 1, 3 and 24 h, aliquots of the reaction mixture were withdrawn and analyzed by HPLC chromatography. A similar procedure was applied using GSH (50 μl, 10 mM) as challenge ligand.
For [^99mTc(N)(PNP3OH)(Cys-Gly-Lys-Gly-ApoMb)]^+ (“Cys-Gly-Lys-Gly” disclosed as SEQ ID NO: 1) additional experiments were conducted using EDTA (50 μl, 10 mM) as exchanging ligand.

[3] = Sera and homogenates stability; type: in vitro ADME, human and rat; details: human and rat sera, 37° C., 3 h
Procedure: Sera and Homogenates Stability.
The in vitro stability of complex 1, complex 2, complex 9 and complex 11 was evaluated by monitoring the RCP at different time points using the following procedures. In a propylene test tube 50 μl of purified [^99mTc(N)(PNP3OH)]-compound were added to: a) 450 μl of human serum, b) 450 μl of rat serum, c) 450 μl of homogenate of rat liver and d) 450 μl of homogenate of rat kidneys. The resulting mixture was incubated at 37° C. for 4 h.
The sample was loaded onto a cartridge, preconditioned with MeOH (1 ml) and equilibrated with water (1 ml), and rinsed with MeOH 5% (3 ml). The activity was eluted with a mixture of EtOH/saline 60% (1 ml). Each fraction was collected and the activity measured using a counter (Cobra II, Packard) to determinate the elution profile. 80% of the loaded activity was collected in the elution fraction. An aliquot of this solution (100 μl) was analyzed by HPLC to assess the degradation of the ^99mTc(N)-complexes (FIG. 11).

[4] = Stability in the reaction solution as function of pH (FIG. 5); type: physicochemical
Procedure: The variation of (%)RCY of complex 1 and complex 2 over the time (30 min vs 18 h), at different conditions, is shown in FIG. 5. […] Alternatively, free PNP3OH was directly used.

avidin = avidin (Gallus gallus, UniProt P02701); assay: Avidin binding; details: 1 and 24 h at 37° C.
Procedure: Avidin Binding. The preliminary evaluation of the binding characteristics of the two separate isomers of complex 11 to avidin was assessed according to the previously reported methods and compared with those of the corresponding already published (Bolzati, C.; Caporale, A.; Agostini, S.; Carta, D.; Cavazza-Ceccato, M.; Refosco, F.; Tisato, F.; Schievano, E.; Bandoli, G. Avidin-biotin system: a small library of cysteine biotinylated derivatives designed for the [^99mTc(N)(PNp)]^2+ metal fragment. Nucl. Med. Biol (2006), 34, 511-522).
The percentage of radiolabeled biotin bound, evaluated after 1 and 24 h of incubation along the saturation curves, is reported in FIG. 9.

[5] = Isomeric conversion over 24 h at 37° C.; type: physicochemical
Procedure: Before the experiments for both complex 11 and complex 9, the two isomers were isolated by HPLC and their isomeric conversion was assessed over 24 h at 37° C.
In addition, a faster b vs a change was noticed. Therefore, for the radiolabeled peptide the mixture of the two isomeric forms in ratio 70/30 was directly utilized for receptor affinity studies.

avidin, sequence (P02701 25-152, species assumed): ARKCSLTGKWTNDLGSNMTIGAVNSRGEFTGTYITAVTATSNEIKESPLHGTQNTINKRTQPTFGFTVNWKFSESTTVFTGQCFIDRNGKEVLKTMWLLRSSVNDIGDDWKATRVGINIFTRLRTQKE

CCOC(=O)C(N)C[S][99Tc+]#[N].COCCN(CCP(CO)CO)CCP(CO)CO [Complex 2, [^99mTc(N)(PNP3OH)(CysOEt)]^+]
Pharmacokinetic profile: blood clearance ([1]; healthy animals, within the first 60 min p.i.): rapid blood clearance
Biodistribution: Blood ([1]; 2 min): 0.99 ± 0.18 % IA/g
Biodistribution: Brain ([1]; 2 min): 0.05 ± 0.00 % IA/g
Biodistribution: Heart ([1]; 2 min): 0.41 ± 0.07 % IA/g
Biodistribution: Intestine ([1]; 2 min): 0.39 ± 0.09 % IA/g
Biodistribution: Kidneys ([1]; 2 min): 5.38 ± 0.22 % IA/g
Biodistribution: Liver ([1]; 2 min): 0.99 ± 0.28 % IA/g
Biodistribution: Lungs ([1]; 2 min): 0.87 ± 0.17 % IA/g
Biodistribution: Muscle ([1]; 2 min): 0.19 ± 0.07 % IA/g
Biodistribution: Spleen ([1]; 2 min): 0.23 ± 0.01 % IA/g
Biodistribution: Stomach ([1]; 2 min): 0.49 ± 0.05 % IA/g
Biodistribution: Urine ([1]; 2 min): 16.32 ± 0.00 % IA/g
Biodistribution: Blood ([1]; 10 min): 0.62 ± 0.11 % IA/g
Biodistribution: Brain ([1]; 10 min): 0.07 ± 0.01 % IA/g
Biodistribution: Heart ([1]; 10 min): 0.26 ± 0.01 % IA/g
Biodistribution: Intestine ([1]; 10 min): 1.35 ± 0.19 % IA/g
Biodistribution: Kidneys ([1]; 10 min): 6.20 ± 0.51 % IA/g
Biodistribution: Liver ([1]; 10 min): 1.56 ± 0.06 % IA/g
Biodistribution: Lungs ([1]; 10 min): 0.50 ± 0.04 % IA/g
Biodistribution: Muscle ([1]; 10 min): 0.17 ± 0.04 % IA/g
Biodistribution: Spleen ([1]; 10 min): 0.17 ± 0.00 % IA/g
Biodistribution: Stomach ([1]; 10 min): 0.44 ± 0.08 % IA/g
Biodistribution: Urine ([1]; 10 min): 25.65 ± 16.29 % IA/g
Biodistribution: Blood ([1]; 30 min): 0.62 ± 0.06 % IA/g
Biodistribution: Brain ([1]; 30 min): 0.05 ± 0.03 % IA/g
Biodistribution: Heart ([1]; 30 min): 0.23 ± 0.02 % IA/g
Biodistribution: Intestine ([1]; 30 min): 1.26 ± 0.42 % IA/g
Biodistribution: Kidneys ([1]; 30 min): 6.43 ± 2.44 % IA/g
Biodistribution: Liver ([1]; 30 min): 1.85 ± 0.13 % IA/g
Biodistribution: Lungs ([1]; 30 min): 0.43 ± 0.00 % IA/g
Biodistribution: Muscle ([1]; 30 min): 0.21 ± 0.01 % IA/g
Biodistribution: Spleen ([1]; 30 min): 0.15 ± 0.00 % IA/g
Biodistribution: Stomach ([1]; 30 min): 0.32 ± 0.02 % IA/g
Biodistribution: Urine ([1]; 30 min): 17.06 ± 0.00 % IA/g
Biodistribution: Blood ([1]; 60 min): 0.24 ± 0.06 % IA/g
Biodistribution: Brain ([1]; 60 min): 0.02 ± 0.01 % IA/g
Biodistribution: Heart ([1]; 60 min): 0.09 ± 0.03 % IA/g
Biodistribution: Intestine ([1]; 60 min): 2.92 ± 0.26 % IA/g
Biodistribution: Kidneys ([1]; 60 min): 2.63 ± 1.43 % IA/g
Biodistribution: Liver ([1]; 60 min): 1.83 ± 0.05 % IA/g
Biodistribution: Lungs ([1]; 60 min): 0.19 ± 0.05 % IA/g
Biodistribution: Muscle ([1]; 60 min): 0.07 ± 0.04 % IA/g
Biodistribution: Spleen ([1]; 60 min): 0.11 ± 0.05 % IA/g
Biodistribution: Stomach ([1]; 60 min): 0.20 ± 0.12 % IA/g
Biodistribution: Urine ([1]; 60 min): 40.14 ± 0.00 % IA/g
Biodistribution: Blood ([1]; 120 min): 0.09 ± 0.09 % IA/g
Biodistribution: Brain ([1]; 120 min): 0.01 ± 0.01 % IA/g
Biodistribution: Heart ([1]; 120 min): 0.06 ± 0.06 % IA/g
Biodistribution: Intestine ([1]; 120 min): 6.23 ± 0.35 % IA/g
Biodistribution: Kidneys ([1]; 120 min): 1.67 ± 1.04 % IA/g
Biodistribution: Liver ([1]; 120 min): 0.29 ± 0.77 % IA/g
Biodistribution: Lungs ([1]; 120 min): 0.15 ± 0.14 % IA/g
Biodistribution: Muscle ([1]; 120 min): 0.04 ± 0.04 % IA/g
Biodistribution: Spleen ([1]; 120 min): 0.07 ± 0.04 % IA/g
Biodistribution: Stomach ([1]; 120 min): 0.31 ± 0.16 % IA/g
Biodistribution: Urine ([1]; 120 min): 20.10 ± 6.28 % IA/g
% RCP after incubation with excess Cys ([2]; 3 h): 65.93%
% RCP after incubation with excess Cys ([2]; 24 h): 23.32%
Stability toward Cys transchelation relative to neutral complexes ([2]; versus complex 1 and complex 11): higher stability toward Cys transchelation
Sera stability [3]: high sera stability
Stability in the reaction solution ([4]; pH 7.4): stable within 18 h
Stability in the reaction solution ([4]; pH 9): a progressive degradation was observed

[^99mTc(N)(PNP3OH)(Biot-Abu-Cys)] [Complex 11]
Recognition by molecular target (avidin binding, FIG. 9) (avidin): recognized by the corresponding molecular target
Isomeric conversion a vs b [5]: No variation of a vs b and vice versa
